{"source": "patent US20240067645A1", "about": "“HETEROCYCLIC COMPOUND AS DIACYLGLYCEROL KINASE INHIBITOR AND USE THEREOF” (LG CHEM, LTD., priority 2020, published 2024)", "data": [{"target": "DGKα (Homo sapiens (Human), UniProt P23743)", "sequence (P23743 whole entry, species assumed)": "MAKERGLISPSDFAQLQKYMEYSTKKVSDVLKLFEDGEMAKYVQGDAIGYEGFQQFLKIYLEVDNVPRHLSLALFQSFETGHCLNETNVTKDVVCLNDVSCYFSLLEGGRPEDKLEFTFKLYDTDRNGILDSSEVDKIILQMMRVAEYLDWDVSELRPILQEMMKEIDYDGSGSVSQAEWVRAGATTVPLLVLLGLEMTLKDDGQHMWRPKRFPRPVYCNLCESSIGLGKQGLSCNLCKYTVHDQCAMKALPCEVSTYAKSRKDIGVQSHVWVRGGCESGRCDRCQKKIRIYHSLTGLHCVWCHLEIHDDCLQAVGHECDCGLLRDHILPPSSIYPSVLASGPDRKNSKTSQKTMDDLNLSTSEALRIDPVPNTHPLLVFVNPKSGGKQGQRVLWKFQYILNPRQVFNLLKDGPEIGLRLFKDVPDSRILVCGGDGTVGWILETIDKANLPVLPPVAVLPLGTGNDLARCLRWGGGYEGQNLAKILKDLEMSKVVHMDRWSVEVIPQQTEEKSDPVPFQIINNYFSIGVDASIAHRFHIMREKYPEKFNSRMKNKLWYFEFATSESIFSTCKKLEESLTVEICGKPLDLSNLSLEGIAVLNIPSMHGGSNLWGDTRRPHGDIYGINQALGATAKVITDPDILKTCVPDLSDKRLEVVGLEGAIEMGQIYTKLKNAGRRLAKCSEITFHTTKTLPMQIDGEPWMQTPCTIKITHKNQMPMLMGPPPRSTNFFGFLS", "assay": "Measurement of inhibitory effect against DGKα enzyme (ADP-Glo)", "assay_type": "biochemical", "conditions": "DGKα enzyme, ADP-Glo luminescence, OAG/ATP substrate, 20 min room temperature; read-out: IC50", "protocol": "Experimental Example: Measurement of Inhibitory Effect Against DGKα Enzyme\nFirst, 3×OAG (3 mM)/ATP (0.45 mM) substrate solution was prepared from 1× substrate assay buffer (40 mM MOPS (pH 7.2), 20 mM MgCl2, 1 mM DTT, 0.4 mM CaCl2), 3 mM sodium deoxycholate, 100 mM NaCl, 0.1 mg/mL BSA, 0.12% NP-40), and vortexed thoroughly for 3 minutes to induce detergent-lipid micelle formation. Then, 3×DGKα (7.5 nM) enzyme solution was prepared from 2× enzyme assay buffer (80 mM MOPS (pH 7.2), 2 mM DTT, 200 mM NaCl, 0.2 mg/mL BSA) and vortexed for a short time.\nAfter preparing the above two solutions, a half-area opaque 96-well assay plate was prepared, and 10 μL of 3× diluted compound solution (30 μM to 0 μM) was transferred to each well. Next, 10 μL of 3×DGK enzyme solution was transferred to the same plate, mixed by pipetting, and then 10 μL of 3×OAG/ATP substrate solution was added to the assay plate and mixed well. The plate was incubated at room temperature for 20 minutes for the enzyme reaction. Next, 15 μL of ADP-Glo reagent was added to each well and mixed by pipetting, followed by incubating the plate at room temperature for 40 minutes to deplete the remaining ATPs. After this step, 30 μL of kinase detection reagent was added and mixed, and the plate was incubated at room temperature for an additional 20 minutes and luminescence was measured by Envision to calculate the IC50 value of each compound.\nThe measurement results are represented in Table 1 (+: IC50>5 μM, ++: 5 μM>IC50>300 nM, +++: IC50<300 nM).", "units": {"IC50": "nM"}, "values": [{"smiles": "Cn1c(=O)c(=O)n(C2CCN(Cc3ccc(OC(F)(F)F)cc3)CC2)c2ncccc21", "note": "[Example 1, methyl-4-(1-(4-(trifluoromethoxy)benzyl)piperidin-4-yl)-1,4-dihydropyrido[2,3-b]pyrazine-2,3-dione]", "IC50": "< 300"}, {"smiles": "Cc1ccc2c(n1)n(C1CCN(Cc3ccc(OC(F)(F)F)cc3)CC1)c(=O)c(=O)n2C", "note": "[Example 2, 1,6-dimethyl-4-(1-(4-(trifluoromethoxy)benzyl)piperidin-4-yl)-1,4-dihydropyrido[2,3-b]pyrazine-2,3-dione]", "IC50": "< 300"}, {"smiles": "CCn1c(=O)c(=O)n(C2CCN(Cc3ccc(OC(F)(F)F)cc3)CC2)c2ncccc21", "note": "[Example 3, ethyl-4-(1-(4-(trifluoromethoxy)benzyl)piperidin-4-yl)-1,4-dihydropyrido[2,3-b]pyrazine-2,3-dione]", "IC50": "300 to 5000"}, {"smiles": "CC(C)Cn1c(=O)c(=O)n(C2CCN(Cc3ccc(OC(F)(F)F)cc3)CC2)c2ncccc21", "note": "[Example 4, isobutyl-4-(1-(4-(trifluoromethoxy)benzyl)piperidin-4-yl)-1,4-dihydropyrido[2,3-b]pyrazine-2,3-dione]", "IC50": "> 5000"}, {"smiles": "Cc1ccc2c(n1)n(C1CCN(Cc3cccc4ccccc34)CC1)c(=O)c(=O)n2C", "note": "[Example 5, 1,6-dimethyl-4-(1-(naphthalen-1-ylmethyl)piperidin-4-yl)-1,4-dihydropyrido[2,3-b]pyrazine-2,3-dione]", "IC50": "< 300"}, {"smiles": "Cc1ccc2c(n1)n(C1CCN(Cc3cc4ccccc4nc3Cl)CC1)c(=O)c(=O)n2C", "note": "[Example 6, 4-(1-((2-chloroquinolin-3-yl)methyl)piperidin-4-yl)-1,6-dimethyl-1,4-dihydropyrido[2,3-b]pyrazine-2,3-dione]", "IC50": "300 to 5000"}, {"smiles": "Cc1ccc2c(n1)n(C1CCN(Cc3c(C)n(C)c4ccccc34)CC1)c(=O)c(=O)n2C", "note": "[Example 7, 4-(1-((1,2-dimethyl-1H-indol-3-yl)methyl)piperidin-4-yl)-1,6-dimethyl-1,4-dihydropyrido[2,3-b]pyrazine-2,3-dione]", "IC50": "> 5000"}, {"smiles": "Cc1ccc2c(n1)n(C1CCN(Cc3ccc4c(ccn4C)c3)CC1)c(=O)c(=O)n2C", "note": "[Example 8, 1,6-dimethyl-4-(1-((1-methyl-1H-indol-5-yl)methyl)piperidin-4-yl)-1,4-dihydropyrido[2,3-b]pyrazine-2,3-dione]", "IC50": "300 to 5000"}, {"smiles": "Cc1ccc2c(n1)n(C1CCN(Cc3ccnc4ccccc34)CC1)c(=O)c(=O)n2C", "note": "[Example 9, 1,6-dimethyl-4-(1-(quinolin-4-ylmethyl)piperidin-4-yl)-1,4-dihydropyrido[2,3-b]pyrazine-2,3-dione]", "IC50": "300 to 5000"}, {"smiles": "Cc1ccc2c(n1)n(C1CCN(Cc3ccccc3-c3ccccc3)CC1)c(=O)c(=O)n2C", "note": "[Example 10, 4-(1-([1,1′-biphenyl]-2-ylmethyl)piperidin-4-yl)-1,6-dimethyl-1,4-dihydropyrido[2,3-b]pyrazine-2,3-dione]", "IC50": "300 to 5000"}, {"smiles": "Cn1c(=O)c(=O)n(C2CCN(Cc3ccc(OC(F)(F)F)cc3)CC2)c2nc(C#N)ccc21", "note": "[Example 11, 1-methyl-2,3-dioxo-4-(1-(4-(trifluoromethoxy)benzyl)piperidin-4-yl)-1,2,3,4-tetrahydropyrido[2,3-b]pyrazine-6-carbonitrile]", "IC50": "300 to 5000"}, {"smiles": "Cc1ccc2c(n1)n(C1CCN(Cc3ccccc3Cl)CC1)c(=O)c(=O)n2C", "note": "[Example 12, 4-(1-(2-chlorobenzyl)piperidin-4-yl)-1,6-dimethyl-1,4-dihydropyrido[2,3-b]pyrazine-2,3-dione]", "IC50": "300 to 5000"}, {"smiles": "Cc1ccc2c(n1)n(C1CCN(Cc3cccc(Cl)c3)CC1)c(=O)c(=O)n2C", "note": "[Example 13, 4-(1-(3-chlorobenzyl)piperidin-4-yl)-1,6-dimethyl-1,4-dihydropyrido[2,3-b]pyrazine-2,3-dione]", "IC50": "< 300"}, {"smiles": "Cc1ccc2c(n1)n(C1CCN(Cc3ccc(Cl)cc3)CC1)c(=O)c(=O)n2C", "note": "[Example 14, 4-(1-(4-chlorobenzyl)piperidin-4-yl)-1,6-dimethyl-1,4-dihydropyrido[2,3-b]pyrazine-2,3-dione]", "IC50": "300 to 5000"}, {"smiles": "COc1ncccc1CN1CCC(n2c(=O)c(=O)n(C)c3ccc(C)nc32)CC1", "note": "[Example 15, 4-(1-((2-methoxypyridin-3-yl)methyl)piperidin-4-yl)-1,6-dimethyl-1,4-dihydropyrido[2,3-b]pyrazine-2,3-dione]", "IC50": "> 5000"}, {"smiles": "Cc1ccc2c(n1)n(C1CCN(Cc3cccc(F)n3)CC1)c(=O)c(=O)n2C", "note": "[Example 16, 4-(1-((6-fluoropyridin-2-yl)methyl)piperidin-4-yl)-1,6-dimethyl-1,4-dihydropyrido[2,3-b]pyrazine-2,3-dione]", "IC50": "> 5000"}, {"smiles": "Cc1ccc2c(n1)n(C1CCN(Cc3ccc(F)nc3)CC1)c(=O)c(=O)n2C", "note": "[Example 17, 4-(1-((6-fluoropyridin-3-yl)methyl)piperidin-4-yl)-1,6-dimethyl-1,4-dihydropyrido[2,3-b]pyrazine-2,3-dione]", "IC50": "300 to 5000"}, {"smiles": "Cc1ccc2c(n1)n(C1CCN(Cc3ccc(Oc4ccccc4)cc3)CC1)c(=O)c(=O)n2C", "note": "[Example 18, 1,6-dimethyl-4-(1-(4-phenoxybenzyl)piperidin-4-yl)-1,4-dihydropyrido[2,3-b]pyrazine-2,3-dione]", "IC50": "< 300"}, {"smiles": "Cc1ccc2c(n1)n(C1CCN(Cc3ccc4ccccc4c3)CC1)c(=O)c(=O)n2C", "note": "[Example 19, 1,6-dimethyl-4-(1-(naphthalen-2-ylmethyl)piperidin-4-yl)-1,4-dihydropyrido[2,3-b]pyrazine-2,3-dione]", "IC50": "300 to 5000"}, {"smiles": "Cc1ccc2c(n1)n(C1CCN(Cc3cccc4cnccc34)CC1)c(=O)c(=O)n2C", "note": "[Example 20, 4-(1-(isoquinolin-5-ylmethyl)piperidin-4-yl)-1,6-dimethyl-1,4-dihydropyrido[2,3-b]pyrazine-2,3-dione]", "IC50": "300 to 5000"}, {"smiles": "Cc1ccc2c(n1)n(C1CCN(Cc3cccc(Oc4ccccc4)c3)CC1)c(=O)c(=O)n2C", "note": "[Example 21, 1,6-dimethyl-4-(1-(3-phenoxybenzyl)piperidin-4-yl)-1,4-dihydropyrido[2,3-b]pyrazine-2,3-dione]", "IC50": "300 to 5000"}, {"smiles": "Cn1c(=O)c(=O)n(C2CCN(Cc3cccc(Cl)c3)CC2)c2ncccc21", "note": "[Example 22, 4-(1-(3-chlorobenzyl)piperidin-4-yl)-1-methyl-1,4-dihydropyrido[2,3-b]pyrazine-2,3-dione]", "IC50": "< 300"}, {"smiles": "Cc1ccc2c(n1)n(C1CCN(Cc3ccccc3)CC1)c(=O)c(=O)n2C", "note": "[Example 23, 4-(1-benzylpiperidin-4-yl)-1,6-dimethyl-1,4-dihydropyrido[2,3-b]pyrazine-2,3-dione]", "IC50": "300 to 5000"}, {"smiles": "Cc1ccc2c(n1)n(C1CCN(C(C)c3ccc4nccnc4c3)CC1)c(=O)c(=O)n2C", "note": "(stereo not shown) [Example 24, 1,6-dimethyl-4-(1-(1-(quinoxalin-6-yl)ethyl)piperidin-4-yl)-1,4-dihydropyrido[2,3-b]pyrazine-2,3-dione]", "IC50": "> 5000"}, {"smiles": "Cn1c(=O)c(=O)n(C2CCN(Cc3cccc(Cl)c3)CC2)c2nc(C#N)ccc21", "note": "[Example 25, 4-(1-(3-chlorobenzyl)piperidin-4-yl)-1-methyl-2,3-dioxo-1,2,3,4-tetrahydropyrido[2,3-b]pyrazine-6-carbonitrile]", "IC50": "300 to 5000"}, {"smiles": "Cn1c(=O)c(=O)n(C2CCN(Cc3cccc4ccccc34)CC2)c2nc(C#N)ccc21", "note": "[Example 26, 1-methyl-4-(1-(naphthalen-1-ylmethyl)piperidin-4-yl)-2,3-dioxo-1,2,3,4-tetrahydropyrido[2,3-b]pyrazine-6-carbonitrile]", "IC50": "300 to 5000"}, {"smiles": "Cn1c(=O)c(=O)n(C2CCN(Cc3ccc(OC(F)(F)F)cc3)CC2)c2ncc(Cl)cc21", "note": "[Example 28, 7-chloro-1-methyl-4-(1-(4-(trifluoromethoxy)benzyl)piperidin-4-yl)-1,4-dihydropyrido[2,3-b]pyrazine-2,3-dione]", "IC50": "< 300"}, {"smiles": "Cn1c(=O)c(=O)n(C2CCN(Cc3cccc4ccccc34)CC2)c2ncc(Cl)cc21", "note": "[Example 29, 7-chloro-1-methyl-4-(1-(naphthalen-1-ylmethyl)piperidin-4-yl)-1,4-dihydropyrido[2,3-b]pyrazine-2,3-dione]", "IC50": "< 300"}, {"smiles": "Cn1c(=O)c(=O)n(C2CCN(Cc3cccc(C(F)(F)F)c3)CC2)c2ncc(Cl)cc21", "note": "[Example 30, 7-chloro-1-methyl-4-(1-(3-(trifluoromethyl)benzyl)piperidin-4-yl)-1,4-dihydropyrido[2,3-b]pyrazine-2,3-dione]", "IC50": "< 300"}, {"smiles": "Cn1c(=O)c(=O)n(C2CCN(Cc3ccc(OC(F)(F)F)cc3)CC2(C)C)c2ncc(Cl)cc21", "note": "(stereo not shown) [Example 31, 7-chloro-4-(3,3-dimethyl-1-(4-(trifluoromethoxy)benzyl)piperidin-4-yl)-1-methyl-1,4-dihydropyrido[2,3-b]pyrazine-2,3-dione]", "IC50": "300 to 5000"}, {"smiles": "Cn1c(=O)c(=O)n([C@H]2C[C@H]3CC[C@@H](C2)N3Cc2ccc(OC(F)(F)F)cc2)c2ncc(Cl)cc21", "note": "[Example 32, 7-chloro-1-methyl-4-((1R,3s,5S)-8-(4-(trifluoromethoxy)benzyl)-8-azabicyclo[3.2.1]octan-3-yl)-1,4-dihydropyrido[2,3-b]pyrazine-2,3-dione]", "IC50": "< 300"}]}]}
